Species on record: Rattus norvegicus
Assay: Open TG-GATES - Regimen: Daily Repeat
Format: toxicity, organism-based, Sprague-Dawley
Parameters: regimen Daily Repeat, gender Male, age 6 weeks
Details: in vivo, po, 300 mg/kg, […], route gavage, dose level Middle; for KIDNEY_L / KIDNEY_R / KIDNEY_TOTAL: tissue Kidney; for LIVER: tissue Liver; for A/G / ALP / ALT / AST / BUN / CRE / Ca / Cl / DBIL / GLC / IP / K / LDH / Na / PL / RALB / TBIL / TC / TG / TP / gamma-GTP: tissue Plasma

CC[C@@H](CO)NCCN[C@@H](CC)CO [ETHAMBUTOL]
Lym (tissue Blood, time 28 day): 77.2%
MCH (tissue Blood, time 28 day): 17.9 pg
MCHC (tissue Blood, time 28 day): 34.5%
MCV (tissue Blood, time 28 day): 51.8 fL
Mono (tissue Blood, time 28 day): 2.8%
Neu (tissue Blood, time 28 day): 17.2%
PT (tissue Blood, time 28 day): 17.8 s
Plat (tissue Blood, time 28 day): 82.7 x10_4/uL
RBC (tissue Blood, time 28 day): 817.8 x10_4/ul
Ret (tissue Blood, time 28 day): 2%
WBC (tissue Blood, time 28 day): 127.3 x10_2/uL
KIDNEY_L (time 7 day): 1.1 g
KIDNEY_R (time 7 day): 1.1 g
KIDNEY_TOTAL (time 7 day): 2.2 g
KIDNEY_L (time 14 day): 1.3 g
KIDNEY_R (time 14 day): 1.3 g
KIDNEY_TOTAL (time 14 day): 2.6 g
KIDNEY_L (time 28 day): 1.2 g
KIDNEY_R (time 28 day): 1.3 g
KIDNEY_TOTAL (time 28 day): 2.5 g
LIVER (time 7 day): 12.5 g
LIVER (time 14 day): 15.8 g
LIVER (time 28 day): 14.5 g
A/G (time 7 day): 1.1
ALP (time 7 day): 1774.8 IU/L
ALT (time 7 day): 60.2 IU/L
AST (time 7 day): 92.2 IU/L
BUN (time 7 day): 20.4 mg/dL
CRE (time 7 day): 0.2 mg/dL
Ca (time 7 day): 10.2 mg/dL
Cl (time 7 day): 107.4 meq/L
DBIL (time 7 day): 0.002 mg/dL
GLC (time 7 day): 172.2 mg/dL
IP (time 7 day): 7.9 mg/dL
K (time 7 day): 4 meq/L
LDH (time 7 day): 196 IU/L
Na (time 7 day): 142.2 meq/L
PL (time 7 day): 141.4 mg/dL
RALB (time 7 day): 2.8 g/dL
TBIL (time 7 day): 0.026 mg/dL
TC (time 7 day): 73 mg/dL
TG (time 7 day): 43.2 mg/dL
TP (time 7 day): 5.3 g/dL
gamma-GTP (time 7 day): 1.8 IU/L
A/G (time 14 day): 1.1
ALP (time 14 day): 2103.2 IU/L
ALT (time 14 day): 68 IU/L
AST (time 14 day): 115.2 IU/L
BUN (time 14 day): 24.4 mg/dL
CRE (time 14 day): 0.2 mg/dL
Ca (time 14 day): 9.8 mg/dL
Cl (time 14 day): 106.4 meq/L
DBIL (time 14 day): 0.02 mg/dL
GLC (time 14 day): 197 mg/dL
IP (time 14 day): 7.2 mg/dL
K (time 14 day): 4.6 meq/L
LDH (time 14 day): 520.6 IU/L
Na (time 14 day): 139.8 meq/L
PL (time 14 day): 139.8 mg/dL
RALB (time 14 day): 2.6 g/dL
TBIL (time 14 day): 0.042 mg/dL
TC (time 14 day): 79.4 mg/dL
TG (time 14 day): 26.4 mg/dL
TP (time 14 day): 4.9 g/dL
gamma-GTP (time 14 day): 1.8 IU/L
A/G (time 28 day): 1
ALP (time 28 day): 1083.5 IU/L
ALT (time 28 day): 66.5 IU/L
AST (time 28 day): 136 IU/L
BUN (time 28 day): 19.2 mg/dL
CRE (time 28 day): 0.2 mg/dL
Ca (time 28 day): 9.4 mg/dL
Cl (time 28 day): 109.8 meq/L
DBIL (time 28 day): 0.0275 mg/dL
GLC (time 28 day): 209 mg/dL
IP (time 28 day): 6.8 mg/dL
K (time 28 day): 4.2 meq/L
LDH (time 28 day): 602.8 IU/L
Na (time 28 day): 140.5 meq/L
PL (time 28 day): 117.5 mg/dL
RALB (time 28 day): 2.6 g/dL
TBIL (time 28 day): 0.055 mg/dL
TC (time 28 day): 70.5 mg/dL
TG (time 28 day): 24.5 mg/dL
TP (time 28 day): 5.3 g/dL
gamma-GTP (time 28 day): 1.5 IU/L
